Reference: ChEMBL document CHEMBL2151015, “Discovery of a potent, selective, and orally bioavailable acidic 11β-hydroxysteroid dehydrogenase type 1 (11β-HSD1) inhibitor: discovery of 2-[(3S)-1-[5-(cyclohexylcarbamoyl)-6-propylsulfanylpyridin-2-yl]-3-piperidyl]acetic acid (AZD4017)” (J Med Chem, 2012)
pIC50: −log10 of the molar value. ≈ marks a conversion by molar mass, not a printed value. Calls of active or inactive are those of the source. No cut-off for these calls is given here.

Assays:
[1] = Octanol-buffer partition coefficient, log D of the compound after 30 mins by shake flask method at pH 7.4; conditions: octanol/buffer
L5178Y = assay: Mutagenicity against mouse L5178Y cells by mouse lymphoma assay; assay type: toxicity, cell-based
CYP2D6 = CYP2D6 (Homo sapiens, UniProt P10635); assay: Inhibition of CYP2D6 at 10 uM; assay type: ADME
Sequence of CYP2D6 (P10635 whole entry): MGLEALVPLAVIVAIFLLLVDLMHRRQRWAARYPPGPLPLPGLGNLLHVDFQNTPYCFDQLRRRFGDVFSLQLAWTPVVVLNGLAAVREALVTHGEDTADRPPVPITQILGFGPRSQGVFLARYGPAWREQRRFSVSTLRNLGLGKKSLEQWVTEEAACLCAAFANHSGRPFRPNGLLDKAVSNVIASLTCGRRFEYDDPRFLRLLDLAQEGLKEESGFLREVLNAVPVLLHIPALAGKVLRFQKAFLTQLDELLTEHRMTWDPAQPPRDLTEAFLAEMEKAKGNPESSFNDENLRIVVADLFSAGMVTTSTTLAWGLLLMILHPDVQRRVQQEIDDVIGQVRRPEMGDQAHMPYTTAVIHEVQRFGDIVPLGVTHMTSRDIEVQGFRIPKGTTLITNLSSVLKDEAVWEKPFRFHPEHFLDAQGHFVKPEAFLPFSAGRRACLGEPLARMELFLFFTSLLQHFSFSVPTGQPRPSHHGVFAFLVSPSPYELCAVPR

[2] = biological target: Glucocorticoid receptor (Homo sapiens) (UniProt P04150); assay: Activity at glucocorticoid receptor
[3] = Apparent permeability from apical to basal side of MDCK cells at 10 uM; assay type: ADME, cell-based, Canis lupus familiaris; conditions: dog
[4] = Oral bioavailability in dog at 1 to 3 mg/kg; assay type: ADME, organism-based, Canis lupus familiaris; conditions: in vivo
CYP3A4 = CYP3A4 (Homo sapiens, UniProt P08684); assay: Inhibition of CYP3A4 at 10 uM; assay type: ADME
Sequence of CYP3A4 (P08684 whole entry): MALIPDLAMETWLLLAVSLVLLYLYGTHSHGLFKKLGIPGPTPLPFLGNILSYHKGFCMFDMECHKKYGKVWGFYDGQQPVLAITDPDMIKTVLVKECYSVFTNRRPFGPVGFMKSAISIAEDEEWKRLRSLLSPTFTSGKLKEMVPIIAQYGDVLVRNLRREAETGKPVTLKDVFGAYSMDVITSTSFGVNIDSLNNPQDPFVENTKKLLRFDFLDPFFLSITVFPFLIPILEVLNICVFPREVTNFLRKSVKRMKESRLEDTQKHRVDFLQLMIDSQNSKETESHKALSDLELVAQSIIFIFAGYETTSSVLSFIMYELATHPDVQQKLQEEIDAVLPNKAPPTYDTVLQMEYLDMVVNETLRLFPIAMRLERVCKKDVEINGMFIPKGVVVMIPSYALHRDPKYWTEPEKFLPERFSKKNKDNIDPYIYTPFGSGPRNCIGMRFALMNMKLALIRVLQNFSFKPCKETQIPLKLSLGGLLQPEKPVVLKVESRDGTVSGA

[5] = Intrinsic clearance in rat hepatocytes assessed per 10^6 cells
in vivo = conditions: rat
Cavia porcellus = species on record: Cavia porcellus; assay: Toxicity against guinea pig by monophasic action potential assay; assay type: organism-based; conditions: in vivo
[6] = biological target: 17-beta-hydroxysteroid dehydrogenase type 3 (Homo sapiens, UniProt P37058); assay: Inhibition of recombinant 17betaHSD3 using [3H]androstenedione as substrate after 90 mins by flow scintillation analysis
Sequence of 17-beta-hydroxysteroid dehydrogenase type 3 (P37058 whole entry): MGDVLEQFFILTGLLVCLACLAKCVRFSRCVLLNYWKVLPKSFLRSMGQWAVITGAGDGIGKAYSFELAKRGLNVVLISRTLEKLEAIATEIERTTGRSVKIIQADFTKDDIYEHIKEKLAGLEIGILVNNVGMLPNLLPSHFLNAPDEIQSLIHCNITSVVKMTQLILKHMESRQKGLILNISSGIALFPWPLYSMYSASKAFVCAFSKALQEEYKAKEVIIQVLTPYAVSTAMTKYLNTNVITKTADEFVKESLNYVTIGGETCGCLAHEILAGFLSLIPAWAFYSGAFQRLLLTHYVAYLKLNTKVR

[7] = Metabolic stability in dog hepatocytes assessed as compound remaining; assay type: ADME, cell-based, Canis lupus familiaris, Hepatocyte
[8] = Fraction unbound in human plasma after 18 to 19 hrs by equilibrium dialysis; assay type: ADME, cell-free
Plasma = assay: Drug uptake in rat plasma assessed as covalent binding measured at 40 uCi/kg, po at 24 hrs; assay type: ADME, organism-based; conditions: in vivo
[9] = Half life in dog at 1 to 3 mg/kg, po; assay type: ADME, organism-based, Canis lupus familiaris; parameters: dose 1-3 mg/kg, route oral; conditions: in vivo
[10] = Aqueous solubility of the compound after 24 hrs by LC-UV analysis at pH 7.4; assay type: physicochemical; conditions: aqueous medium
[11] = Half life in mouse at 1 to 3 mg/kg, po; assay type: ADME, organism-based; parameters: dose 1-3 mg/kg, route oral; conditions: in vivo
[12] = Volume of distribution at steady state in rat at 1 to 3 mg/kg; assay type: ADME, organism-based; parameters: dose 1-3 mg/kg; conditions: in vivo, read-out: Vdss
[13] = Oral bioavailability in rat; assay type: ADME, organism-based; conditions: in vivo
Hepatocyte [14] = assay: Metabolic stability in human hepatocytes assessed as compound remaining; assay type: ADME, cell-based
Mus musculus [15] = assay: Ex-vivo inhibition of 11betaHSD1 in C57Bl6J mouse epididymal adipose tissue using [3H]cortisone as substrate at 50 mg/kg, po after 1 hr by flow scintillation analysis; assay type: functional
[16] = Half life in mouse at 1 to 3 mg/kg, iv; assay type: ADME, organism-based; parameters: dose 1-3 mg/kg, route intravenous; conditions: in vivo
[17] = biological target: 17-beta-hydroxysteroid dehydrogenase type 1 (Homo sapiens, UniProt P14061); assay: Inhibition of recombinant 17betaHSD1 using [3H]estrone as substrate after 20 mins by flow scintillation analysis
Sequence of 17-beta-hydroxysteroid dehydrogenase type 1 (P14061 whole entry): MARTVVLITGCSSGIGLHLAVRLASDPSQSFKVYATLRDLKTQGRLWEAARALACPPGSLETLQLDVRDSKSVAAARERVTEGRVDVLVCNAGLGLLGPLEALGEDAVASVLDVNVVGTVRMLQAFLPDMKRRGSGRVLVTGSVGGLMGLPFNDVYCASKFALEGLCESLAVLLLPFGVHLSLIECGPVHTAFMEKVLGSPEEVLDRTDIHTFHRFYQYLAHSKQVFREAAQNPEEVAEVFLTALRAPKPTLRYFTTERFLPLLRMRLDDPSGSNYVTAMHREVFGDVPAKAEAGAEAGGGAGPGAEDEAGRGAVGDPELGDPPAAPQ

[18] = Half life in rat at 1 to 3 mg/kg, iv; assay type: ADME, organism-based; parameters: dose 1-3 mg/kg, route intravenous; conditions: in vivo
[19] = Fraction unbound in dog plasma after 18 to 19 hrs by equilibrium dialysis; assay type: ADME, cell-free, Canis lupus familiaris
CYP2C19 = CYP2C19 (Homo sapiens, UniProt P33261); assay: Inhibition of CYP2C19 at 10 uM; assay type: ADME
[20] = Plasma clearance in mouse at 1 to 3 mg/kg; assay type: ADME, organism-based; parameters: dose 1-3 mg/kg
[21] = Half life in rat at 1 to 3 mg/kg, po; assay type: ADME, organism-based; parameters: dose 1-3 mg/kg, route oral; conditions: in vivo
[22] = Fraction unbound in mouse plasma after 18 to 19 hrs by equilibrium dialysis; assay type: ADME, cell-free
[23] = biological target: 11-beta-hydroxysteroid dehydrogenase 1 (Mus musculus, UniProt P50172); assay: Inhibition of N-terminal His6-tagged full length mouse 11betaHSD1 expressed in baculovirus infected cells using cortisone as substrate after 25 mins by HTRF assay
CYP2C9 = CYP2C9 (Homo sapiens, UniProt P11712); assay: Inhibition of CYP2C9 at 10 uM; assay type: ADME
Sequence of CYP2C9 (P11712 whole entry): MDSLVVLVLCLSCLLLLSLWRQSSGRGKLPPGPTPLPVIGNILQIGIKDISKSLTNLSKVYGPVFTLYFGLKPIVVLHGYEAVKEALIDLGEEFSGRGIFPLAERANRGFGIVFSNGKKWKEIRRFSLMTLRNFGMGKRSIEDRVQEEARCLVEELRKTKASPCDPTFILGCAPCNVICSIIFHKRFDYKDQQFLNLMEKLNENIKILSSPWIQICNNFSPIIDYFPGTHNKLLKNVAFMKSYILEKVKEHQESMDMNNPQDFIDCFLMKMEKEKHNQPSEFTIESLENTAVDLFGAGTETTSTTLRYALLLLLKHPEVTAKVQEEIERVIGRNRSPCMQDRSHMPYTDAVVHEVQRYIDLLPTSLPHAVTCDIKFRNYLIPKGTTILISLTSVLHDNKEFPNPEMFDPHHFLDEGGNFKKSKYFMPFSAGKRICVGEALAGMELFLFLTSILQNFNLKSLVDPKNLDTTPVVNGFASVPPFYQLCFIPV

[24] = Oral bioavailability in rat at 1 to 3 mg/kg; assay type: ADME, organism-based; conditions: in vivo
[25] = biological target: 11-beta-hydroxysteroid dehydrogenase type 1 (Canis lupus familiaris, UniProt Q5XX84); assay: Inhibition of N-terminal His6-tagged full length dog 11betaHSD1 expressed in baculovirus infected cells using cortisone as substrate after 25 mins by HTRF assay
Sequence of 11-beta-hydroxysteroid dehydrogenase type 1 (Q5XX84 whole entry): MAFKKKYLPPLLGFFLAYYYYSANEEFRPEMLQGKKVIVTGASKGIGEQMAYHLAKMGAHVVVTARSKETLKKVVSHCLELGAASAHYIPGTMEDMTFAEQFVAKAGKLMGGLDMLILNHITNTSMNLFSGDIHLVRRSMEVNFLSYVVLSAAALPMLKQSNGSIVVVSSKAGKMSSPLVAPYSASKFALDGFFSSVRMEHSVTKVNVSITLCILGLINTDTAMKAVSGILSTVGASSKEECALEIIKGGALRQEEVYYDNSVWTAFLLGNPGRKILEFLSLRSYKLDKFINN

Liver [26] = assay: Drug uptake in rat liver assessed as covalent binding measured per mg protein at 40 uCi/kg, po at 24 hrs; assay type: ADME, organism-based; conditions: in vivo
[27] = biological target: Type-2 angiotensin II receptor (Homo sapiens) (UniProt P50052); assay: Activity at AT2 receptor
Sequence of Type-2 angiotensin II receptor (Homo sapiens) (P50052 whole entry): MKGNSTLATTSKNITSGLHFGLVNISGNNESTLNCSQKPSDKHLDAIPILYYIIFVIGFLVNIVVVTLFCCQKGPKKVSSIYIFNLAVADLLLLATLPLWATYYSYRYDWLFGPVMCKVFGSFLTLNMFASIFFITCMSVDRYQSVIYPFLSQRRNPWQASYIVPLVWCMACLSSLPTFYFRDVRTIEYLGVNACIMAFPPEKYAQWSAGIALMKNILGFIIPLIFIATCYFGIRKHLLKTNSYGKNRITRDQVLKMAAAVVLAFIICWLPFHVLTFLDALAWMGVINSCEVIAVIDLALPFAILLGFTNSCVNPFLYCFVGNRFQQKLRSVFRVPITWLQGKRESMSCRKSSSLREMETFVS

Hepatocyte [28] = assay: Metabolic stability in rat hepatocytes assessed as compound remaining; assay type: ADME, cell-based
[29] = Fraction unbound in rat plasma after 18 to 19 hrs by equilibrium dialysis; assay type: ADME, cell-free
CYP1A2 = CYP1A2 (Homo sapiens, UniProt P05177); assay: Inhibition of CYP1A2 at 10 uM; assay type: ADME
[30] = biological target: 11-beta-hydroxysteroid dehydrogenase 1 (Rattus norvegicus, UniProt P16232); assay: Inhibition of N-terminal His6-tagged full length rat 11betaHSD1 expressed in baculovirus infected cells using cortisone as substrate after 25 mins by HTRF assay
Sequence of 11-beta-hydroxysteroid dehydrogenase 1 (Rattus norvegicus, UniProt P16232) (P16232 whole entry): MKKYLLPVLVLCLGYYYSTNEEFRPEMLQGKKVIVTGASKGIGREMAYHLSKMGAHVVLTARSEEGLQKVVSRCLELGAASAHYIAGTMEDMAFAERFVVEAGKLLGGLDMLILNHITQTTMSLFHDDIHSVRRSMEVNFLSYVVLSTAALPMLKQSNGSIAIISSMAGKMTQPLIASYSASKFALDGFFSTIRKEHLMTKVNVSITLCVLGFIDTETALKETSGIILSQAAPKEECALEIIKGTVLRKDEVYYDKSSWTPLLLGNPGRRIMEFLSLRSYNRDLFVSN

Salmonella typhimurium = assay: Mutagenicity against Salmonella typhimurium by Ames test; assay type: toxicity, organism-based; conditions: salmonella enterica subsp. enterica serovar typhimurium
[31] = Inhibition of N-terminal His6-tagged full length cynomolgus monkey 11betaHSD1 expressed in baculovirus infected cells using cortisone as substrate after 25 mins by HTRF assay; parameters: species or system Macaca fascicularis
[32] = Half life in dog at 1 to 3 mg/kg, iv; assay type: ADME, organism-based, Canis lupus familiaris; parameters: dose 1-3 mg/kg, route intravenous; conditions: in vivo
[33] = Induction in cytochrome P450 in rat up to 1 month; assay type: ADME
Mus musculus [34] = assay: Ex-vivo inhibition of 11betaHSD1 in C57Bl6J mouse epididymal adipose tissue using [3H]cortisone as substrate at 1500 mg/kg, po after 1 hr by flow scintillation analysis; assay type: functional
[35] = Plasma clearance in dog at 1 to 3 mg/kg; assay type: ADME, organism-based, Canis lupus familiaris; parameters: dose 1-3 mg/kg
Liver [36] = assay: Drug uptake in rat liver assessed as covalent binding measured per mg protein at 40 uCi/kg, po at 2 hrs; assay type: ADME, organism-based; conditions: in vivo
[37] = biological target: Mineralocorticoid receptor (Homo sapiens) (UniProt P08235); assay: Activity at mineralocorticoid receptor
Sequence of Mineralocorticoid receptor (Homo sapiens) (P08235 whole entry): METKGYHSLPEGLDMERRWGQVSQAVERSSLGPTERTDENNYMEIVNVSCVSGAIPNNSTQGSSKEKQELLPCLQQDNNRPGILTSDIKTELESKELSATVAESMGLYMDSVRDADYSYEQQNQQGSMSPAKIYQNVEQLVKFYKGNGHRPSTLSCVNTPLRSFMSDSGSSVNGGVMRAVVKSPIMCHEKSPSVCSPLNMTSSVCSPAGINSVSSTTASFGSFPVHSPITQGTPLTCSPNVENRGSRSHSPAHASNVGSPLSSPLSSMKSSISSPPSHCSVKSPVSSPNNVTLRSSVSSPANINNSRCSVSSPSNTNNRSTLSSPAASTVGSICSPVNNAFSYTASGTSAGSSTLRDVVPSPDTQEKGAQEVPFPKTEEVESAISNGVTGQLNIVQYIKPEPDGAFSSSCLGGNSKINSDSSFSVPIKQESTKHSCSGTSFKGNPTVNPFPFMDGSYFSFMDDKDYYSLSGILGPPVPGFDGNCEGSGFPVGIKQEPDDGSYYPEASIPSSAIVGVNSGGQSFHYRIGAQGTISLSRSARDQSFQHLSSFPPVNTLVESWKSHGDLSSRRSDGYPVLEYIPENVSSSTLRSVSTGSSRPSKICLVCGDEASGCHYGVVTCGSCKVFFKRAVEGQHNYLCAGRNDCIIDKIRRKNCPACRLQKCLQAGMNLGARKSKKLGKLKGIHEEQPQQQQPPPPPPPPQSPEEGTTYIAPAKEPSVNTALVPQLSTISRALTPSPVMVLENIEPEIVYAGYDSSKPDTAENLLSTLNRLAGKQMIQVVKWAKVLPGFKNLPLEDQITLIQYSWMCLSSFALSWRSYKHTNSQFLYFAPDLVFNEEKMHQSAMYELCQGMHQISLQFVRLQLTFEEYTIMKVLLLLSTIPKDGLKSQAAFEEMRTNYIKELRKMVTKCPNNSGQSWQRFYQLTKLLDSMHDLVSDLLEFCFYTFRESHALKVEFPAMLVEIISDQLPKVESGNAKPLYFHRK

[38] = biological target: 11-beta-hydroxysteroid dehydrogenase type 2 (Homo sapiens, UniProt P80365); assay: Inhibition of recombinant 11betaHSD2 using cortisol as substrate after 40 mins by fluorescence spectrophotometry
Sequence of 11-beta-hydroxysteroid dehydrogenase type 2 (P80365 whole entry): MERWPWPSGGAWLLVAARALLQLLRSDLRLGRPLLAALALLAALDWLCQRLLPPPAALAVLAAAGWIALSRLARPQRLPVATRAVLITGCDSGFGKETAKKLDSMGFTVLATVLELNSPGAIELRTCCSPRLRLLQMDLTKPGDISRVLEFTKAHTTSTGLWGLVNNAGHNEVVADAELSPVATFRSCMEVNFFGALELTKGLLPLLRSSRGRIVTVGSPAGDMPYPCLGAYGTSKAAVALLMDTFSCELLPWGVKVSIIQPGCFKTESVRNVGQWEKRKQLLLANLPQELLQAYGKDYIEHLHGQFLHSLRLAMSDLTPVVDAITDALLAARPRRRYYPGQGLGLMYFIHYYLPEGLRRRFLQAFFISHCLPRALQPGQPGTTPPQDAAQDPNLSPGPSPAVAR

[39] = Volume of distribution at steady state in dog at 1 to 3 mg/kg; assay type: ADME, organism-based, Canis lupus familiaris; parameters: dose 1-3 mg/kg; conditions: in vivo, read-out: Vdss
Mus musculus [40] = assay: Ex-vivo inhibition of 11betaHSD1 in po dosed C57Bl6J mouse epididymal adipose tissue using [3H]cortisone as substrate after 1 hr by flow scintillation analysis; assay type: functional, organism-based
[41] = Plasma clearance in rat at 1 to 3 mg/kg; assay type: ADME, organism-based; parameters: dose 1-3 mg/kg
[42] = Oral bioavailability in mouse at 1 to 3 mg/kg; assay type: ADME, organism-based; conditions: in vivo
[43] = biological target: Gastrin/cholecystokinin type B receptor (Homo sapiens) (UniProt P32239); assay: Activity at CCK2 receptor
Sequence of Gastrin/cholecystokinin type B receptor (Homo sapiens) (P32239 whole entry): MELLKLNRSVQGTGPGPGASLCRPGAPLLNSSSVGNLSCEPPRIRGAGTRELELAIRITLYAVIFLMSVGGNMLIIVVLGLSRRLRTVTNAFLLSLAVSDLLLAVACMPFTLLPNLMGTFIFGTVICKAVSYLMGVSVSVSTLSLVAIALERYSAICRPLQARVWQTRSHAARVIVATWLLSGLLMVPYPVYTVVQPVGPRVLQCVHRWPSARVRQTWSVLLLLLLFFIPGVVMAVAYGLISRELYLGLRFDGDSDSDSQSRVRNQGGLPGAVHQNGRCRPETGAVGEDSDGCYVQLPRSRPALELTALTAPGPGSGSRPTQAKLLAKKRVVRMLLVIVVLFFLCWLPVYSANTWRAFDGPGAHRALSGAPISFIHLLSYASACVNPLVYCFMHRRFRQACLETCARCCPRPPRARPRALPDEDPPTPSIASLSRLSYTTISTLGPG

[44] = Apparent permeability from basal to apical side of MDCK cells at 10 uM; assay type: ADME, cell-based, Canis lupus familiaris; conditions: dog
[45] = Volume of distribution at steady state in mouse at 1 to 3 mg/kg; assay type: ADME, organism-based; parameters: dose 1-3 mg/kg; conditions: in vivo, read-out: Vdss

SMILES: CCCSc1nc(N2CCC[C@@H](CC(=O)O)C2)ccc1C(=O)NC1CCCCC1 [AZD-4017]
- logD at 0.5 h [1]: 2.2
- Activity (L5178Y): Non-toxic
- inhibition at 10 µM (CYP2D6): < 25%
- Activity [2]: inactive
- Papp A→B at 10 µM [3]: 29 ×10⁻⁶ cm/s
- bioavailability [4]: 60%
- inhibition at 10 µM (CYP3A4): < 25%
- hepatocyte CLint [5]: < 2 µL/min/1e6 cells
- clearance (in vivo): 9 mL/min/kg
- Activity (Cavia porcellus): Non-toxic
- pIC50 [6]: < 4.52
- Stability [7]: 34%
- fraction unbound [8]: 0.008
- Drug uptake (Plasma): Not Active
- half-life [9]: 4.9 h
- solubility at 24 h [10]: 144 µM (≈ 60.4 µg/mL)
- half-life [11]: 3.2 h
- Vd [12]: 2.6 L/kg
- bioavailability [13]: > 100%
- Stability (Hepatocyte [14]): 93%
- inhibition in vivo at 50 mg/kg (Mus musculus [15]): 50%
- half-life [16]: 4.2 h
- pIC50 [17]: < 4.52
- half-life [18]: 4.4 h
- fraction unbound [19]: 0.023
- inhibition at 10 µM (CYP2C19): < 25%
- clearance [20]: 16 mL/min/kg
- half-life [21]: 4.7 h
- fraction unbound [22]: 0.029
- pIC50 [23]: 6.12
- inhibition at 10 µM (CYP2C9): < 25%
- bioavailability [24]: > 100%
- pIC50 [25]: 5.42
- Drug uptake (Liver [26]): Not Active
- Activity [27]: Active
- Stability (Hepatocyte [28]): 66%
- fraction unbound [29]: 0.017
- inhibition at 10 µM (CYP1A2): < 25%
- pIC50 [30]: 5.39
- Activity (Salmonella typhimurium): Non-toxic
- pIC50 [31]: 7.54
- half-life [32]: 6.2 h
- Activity [33]: Non-toxic
- Imax (Mus musculus [34]): 70%
- clearance [35]: 7 mL/min/kg
- Drug uptake (Liver [36]): < 25 pmol
- Activity [37]: inactive
- pIC50 [38]: < 4.52
- Vd [39]: 0.9 L/kg
- inhibition (Mus musculus [40]): Dose-dependent effect
- clearance [41]: 9 mL/min/kg
- bioavailability [42]: > 100%
- Activity [43]: Active
- Papp B→A at 10 µM [44]: 22 ×10⁻⁶ cm/s
- Vd [45]: 4.2 L/kg
